These results are taken from PMC6047530 (Journal of medicinal chemistry, 2018).

Entries after “also recorded” stand apart in the source; their conditions may differ.

In one series the test system is MEF PARP-1 KO−/− cells. Put plainly: Cell viability assay in MEF PARP-1 KO−/− cells. It is filed as cell-based, mouse. The note with it: for EC50: Mus musculus, read-out: PARP-1−/− EC50; for cell death, in words: MEF PARP-1 KO−/−.
The subject of series [1] is OVCAR8 (BRCA1-methylated) cell line. Put plainly: Cytotoxicity screen in OVCAR8 cells at 10 μM. Format: cell-based.
For series [2], the system named is poly(ADP-ribose) (PAR), biochemical product of PARP-1. Put plainly: Western blot analysis of PAR expression in OVCAR8 cells. The note with it: OVCAR8 cells treated 6 h. It is filed as cell-based.
Another series deals with PARP-1 (Homo sapiens, UniProt P09874). Put plainly: PARP-1 radioligand binding. The note with it: 10c vs 10a; 15b vs 15a.
Sequence of PARP-1 (P09874 whole entry): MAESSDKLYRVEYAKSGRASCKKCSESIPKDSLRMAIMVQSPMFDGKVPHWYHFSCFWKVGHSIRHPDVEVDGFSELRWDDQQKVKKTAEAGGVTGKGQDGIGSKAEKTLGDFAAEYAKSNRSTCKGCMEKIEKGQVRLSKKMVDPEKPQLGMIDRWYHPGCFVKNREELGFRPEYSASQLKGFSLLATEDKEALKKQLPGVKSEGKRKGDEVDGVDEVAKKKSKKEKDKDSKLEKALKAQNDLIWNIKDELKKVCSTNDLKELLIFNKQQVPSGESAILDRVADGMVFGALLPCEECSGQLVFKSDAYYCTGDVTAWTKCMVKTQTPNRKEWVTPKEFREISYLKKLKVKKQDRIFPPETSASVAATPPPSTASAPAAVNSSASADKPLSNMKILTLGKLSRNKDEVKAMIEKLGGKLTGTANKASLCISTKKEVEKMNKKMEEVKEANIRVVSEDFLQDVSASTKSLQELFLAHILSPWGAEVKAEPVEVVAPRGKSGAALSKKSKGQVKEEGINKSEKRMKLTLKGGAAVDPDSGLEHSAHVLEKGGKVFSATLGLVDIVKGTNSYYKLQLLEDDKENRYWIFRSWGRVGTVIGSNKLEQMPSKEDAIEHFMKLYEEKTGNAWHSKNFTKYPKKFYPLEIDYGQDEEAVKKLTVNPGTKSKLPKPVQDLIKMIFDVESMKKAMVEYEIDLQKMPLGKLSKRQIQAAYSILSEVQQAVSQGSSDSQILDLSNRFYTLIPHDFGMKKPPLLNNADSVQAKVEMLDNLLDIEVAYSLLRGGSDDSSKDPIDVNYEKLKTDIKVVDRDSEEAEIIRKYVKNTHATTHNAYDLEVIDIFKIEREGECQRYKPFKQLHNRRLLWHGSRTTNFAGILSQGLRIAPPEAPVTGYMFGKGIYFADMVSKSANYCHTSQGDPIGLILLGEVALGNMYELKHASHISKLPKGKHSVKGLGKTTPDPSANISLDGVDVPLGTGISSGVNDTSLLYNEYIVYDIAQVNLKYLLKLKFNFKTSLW
The test system of series [3] is γH2AX foci in OVCAR8 cells. Put plainly: Immunofluorescent cell microscopy of γH2AX foci. It is filed as cell-based. The note with it: 0.01-10 μM, 24 hrs.
For another series, the system named is MEF WT cells. Put plainly: Cell viability assay in MEF WT cells. Format: cell-based, mouse. The note with it: for EC50: Mus musculus, read-out: WT EC50; for cell death, in words: MEF WT.
The next series relates to UWB1.289 cells. Put plainly: Cell viability assay in UWB1.289. Format: cell-based. The note with it: UWB1.289 isogenic cell lines.
For the next series, the system named is other PARPs. Put plainly: PARPs enzyme inhibition panel at 10 μM. Format: biochemical.
In the next series the test system is MEF PARP-2 KO−/− cells. Put plainly: Cell viability assay in MEF PARP-2 KO−/− cells. The note with it: Mus musculus, read-out: PARP-2−/− EC50. It is filed as cell-based.

In the case of `CC(C)(C)OC(=O)N1CC2(CCN2C(=O)c2cc(Cc3n[nH]c(=O)c4ccccc34)ccc2F)C1` [Compound 11b, Tert-butyl 1-(2-fluoro-5-((4-oxo-3,4-dihydrophthalazin-1-yl)methyl)benzoyl)-1,6-diazaspiro[3.3]heptane-6-carboxylate], the EC50 in the series with MEF PARP-1 KO−/− cells was > 100 µM.

On to `O=C(c1cc(Cc2n[nH]c(=O)c3ccccc23)ccc1F)N1CCC2(CCCC2)C1` [Compound 15a, 4-(4-Fluoro-3-(2-azaspiro[4.4]nonane-2-carbonyl)benzyl)phthalazin-1(2H)-one], for which the EC50 in the series with MEF PARP-1 KO−/− cells is > 100 µM.

As for `O=C(c1cc(Cc2n[nH]c(=O)c3ccccc23)ccc1F)N1CC2(CCN(C(=O)C3CC3)CC2)C1` [Compound 12d, 4-(3-(7-(Cyclopropanecarbonyl)-2,7-diazaspiro[3.5]nonane-2-carbonyl)-4-fluorobenzyl)phthalazin-1(2H)-one], the EC50 with MEF PARP-1 KO−/− cells is > 100 µM.

As for `O=C(c1cc(Cc2n[nH]c(=O)c3ccccc23)ccc1F)N1CC2(CCCCC2)C1` [Compound 12a, 4-(4-Fluoro-3-(2-azaspiro[3.5]nonane-2-carbonyl)benzyl)phthalazin-1(2H)-one], in [1], the “cytotoxicity / anti-proliferative activity (in words)” value is reported as “poor cytotoxic properties”.

Take `O=C(c1cc(Cc2n[nH]c(=O)c3ccccc23)ccc1F)N1CCC2(CCN(C(=O)C3CC3)CC2)C1` [Compound 16d, 4-(3-(8-(Cyclopropanecarbonyl)-2,8-diazaspiro[4.5]decane-2-carbonyl)-4-fluorobenzyl)phthalazin-1(2H)-one]: the EC50 in the series on MEF PARP-1 KO−/− cells is > 100 µM.

As to `O=C(c1cc(Cc2n[nH]c(=O)c3ccccc23)ccc1F)N1CC2(CCC2)C1` [Compound 10a, 4-(4-Fluoro-3-(2-azaspiro[3.3]heptane-2-carbonyl)benzyl)phthalazin-1(2H)-one], in the series with MEF PARP-1 KO−/− cells, the EC50 is > 100 µM. For the same compound, the “cytotoxicity / anti-proliferative activity (in words)” value in [1] is “poor cytotoxic properties”.

On to `CC(C)(C)OC(=O)N1CCC2(CCN(C(=O)c3cc(Cc4n[nH]c(=O)c5ccccc45)ccc3F)C2)C1` (centres unmarked) [Compound 15b, Tert-butyl 7-(2-fluoro-5-((4-oxo-3,4-dihydrophthalazin-1-yl)methyl)benzoyl)-2,7-diazaspiro[4.4]nonane-2-carboxylate], for which, in [2], the “inhibition of PARP activity (PAR synthesis), in words” value is reported as “inhibit PARP activity in a manner similar to olaparib”. Moreover, the “fold lower PARP-1 affinity compared to methylene congener” value on PARP-1 was ~ 85 fold. Moreover, the “DNA damage (γ-H2AX foci), in words” value in series [3] is reported as “induced DNA damage at micromolar concentrations; also recorded: induced DNA damage in a dose dependent manner”.

As for `O=C(c1cc(Cc2n[nH]c(=O)c3ccccc23)ccc1F)N1CCC2(CCN(C(=O)C3CC3)C2)C1` (centres unmarked) [Compound 15d, 4-(3-(7-(Cyclopropanecarbonyl)-2,7-dizaspiro[4.4]nonane-2-carbonyl)-4-fluorobenzyl)phthalazin-1(2H)-one], the EC50 in the series with MEF WT cells and with MEF PARP-1 KO−/− cells was > 100 µM each time.

Regarding `O=C(c1cc(Cc2n[nH]c(=O)c3ccccc23)ccc1F)N1CCC12CCCCC2` [Compound 13a, 4-(4-Fluoro-3-(1-azaspiro[3.5]nonane-1-carbonyl)benzyl)phthalazin-1(2H)-one], the EC50 with MEF PARP-1 KO−/− cells is > 100 µM.

As for `O=C(C1CC1)N1CCC2(CC1)CCN2C(=O)c1cc(Cc2n[nH]c(=O)c3ccccc23)ccc1F` [Compound 13d, 4-(3-(7-(Cyclopropanecarbonyl)-1,7-diazaspiro[3.5]nonane-1-carbonyl)-4-fluorobenzyl)phthalazin-1(2H)-one], in the series with MEF PARP-1 KO−/− cells, the EC50 is > 100 µM.

On to `O=C(c1cc(Cc2n[nH]c(=O)c3ccccc23)ccc1F)N1CCC12CCC2` [Compound 11a, 4-(4-Fluoro-3-(1-azaspiro[3.3]heptane-1-carbonyl)benzyl)phthalazin-1(2H)-one], for which the EC50 in the series on MEF PARP-1 KO−/− cells is > 100 µM.

Turning to `O=C(c1cc(Cc2n[nH]c(=O)c3ccccc23)ccc1F)N1CC2(CCNCC2)C1` [Compound 12c, 4-(4-Fluoro-3-(2,7-diazaspiro[3.5]nonane-2-carbonyl)benzyl)phthalazin-1(2H)-one], the EC50 with MEF WT cells and with MEF PARP-1 KO−/− cells was > 100 µM throughout.

For `O=C(c1cc(Cc2n[nH]c(=O)c3ccccc23)ccc1F)N1CC2(C1)CN(C(=O)C1CC1)C2` [Compound 10e, 4-(3-(6-(Cyclopropanecarbonyl)-2,6-diazaspiro[3.3]heptane-2-carbonyl)-4-fluorobenzyl)phthalazin-1(2H)-one], the “inhibition of PARP activity (PAR synthesis), in words” value in series [2] is given as “inhibit PARP activity in a manner similar to olaparib”. Further, in the series with MEF WT cells, the “cell death, in words” value is “no measurable cell death” and the EC50 was > 100 µM. Moreover, in the series on MEF PARP-1 KO−/− cells, the “cell death, in words” value was “no measurable cell death” and the EC50 is > 100 µM. Besides, the “DNA damage (γ-H2AX foci), in words” value in [3] is reported as “did not induce DNA damage at similar drug concentrations as olaparib; also recorded: unable to induce DNA damage at concentrations as high as 10 μM”. In addition, in the series on UWB1.289 cells, the “cytotoxic concentration (EC50) relative to olaparib” value is recorded as “approximately 7 fold”. In addition, the “off-target enzymatic inhibition of other PARPs, in words” value in the series with other PARPs is reported as “minimal off-target activity; also recorded: less enzymatic inhibition with most other PARPs”.

For `O=C(c1cc(Cc2n[nH]c(=O)c3ccccc23)ccc1F)N1CCC2(CCCCC2)CC1` [Compound 17a, 4-(4-Fluoro-3-(3-azaspiro[5.5]undecane-3-carbonyl)benzyl)phthalazin-1(2H)-one], the EC50 in the series on MEF PARP-1 KO−/− cells is > 100 µM.

Take `O=C(c1cc(Cc2n[nH]c(=O)c3ccccc23)ccc1F)N1CCC12CCNCC2` [Compound 13c, 4-(4-Fluoro-3-(1,7-diazaspiro[3.5]nonane-1-carbonyl)benzyl)phthalazin-1(2H)-one]: the EC50 in the series with MEF WT cells and with MEF PARP-1 KO−/− cells was > 100 µM each time.

On to `O=C(c1cc(Cc2n[nH]c(=O)c3ccccc23)ccc1F)N1CCC2(CC1)CCN(C(=O)C1CC1)CC2` [Compound 17d, 4-(3-(9-(Cyclopropanecarbonyl)-3,9-diazaspiro[5.5]undecane-3-carbonyl)-4-fluorobenzyl)phthalazin-1(2H)-one], for which the “cytotoxicity / anti-proliferative activity (in words)” value in [1] is “poor cytotoxic properties”.

Regarding `O=C(c1cc(Cc2n[nH]c(=O)c3ccccc23)ccc1F)N1CCN(C(=O)C2CC2)CC1` [olaparib, reference compound], the “DNA damage (γ-H2AX foci), in words” value in [3] is recorded as “induced DNA damage in a dose dependent manner”.

For `O=C(c1cc(Cc2n[nH]c(=O)c3ccccc23)ccc1F)N1CCC2(CCNCC2)CC1` [Compound 17c, 4-(4-Fluoro-3-(3,9-diazaspiro[5.5]undecane-3-carbonyl)benzyl)phthalazin-1(2H)-one], the EC50 in the series on MEF WT cells and with MEF PARP-1 KO−/− cells was > 100 µM throughout.

On to `O=C(c1cc(Cc2n[nH]c(=O)c3ccccc23)ccc1F)N1CCC2(CCNC2)C1` (centres unmarked) [Compound 15c, 4-(4-Fluoro-3-(2,7-diazaspiro[4.4]nonane-2-carbonyl)benzyl)phthalazin-1(2H)-one], for which the EC50 in the series on MEF WT cells and with MEF PARP-1 KO−/− cells was > 100 µM each time.

Regarding `O=C(c1cc(Cc2n[nH]c(=O)c3ccccc23)ccc1F)N1CC2(CNC2)C1` [Compound 10d, 4-(4-Fluoro-3-(2,6-diazaspiro[3.3]heptane-2-carbonyl)benzyl)phthalazin-1(2H)-one], the “cell death, in words” value in the series with MEF WT cells and in the series on MEF PARP-1 KO−/− cells was “no cell death was observed” throughout. Also, the EC50 in the series on MEF WT cells, in the series on MEF PARP-1 KO−/− cells and in the series with MEF PARP-2 KO−/− cells was > 100 µM each time.

For `CC(C)(C)OC(=O)N1CCC2(CC1)CCN2C(=O)c1cc(Cc2n[nH]c(=O)c3ccccc23)ccc1F` [Compound 13b, Tert-butyl 1-(2-fluoro-5-((4-oxo-3,4-dihydrophthalazin-1-yl)methyl)benzoyl)-1,7-diazaspiro[3.5]nonane-7-carboxylate], the EC50 in the series with MEF PARP-1 KO−/− cells is > 100 µM.

As for `O=C(C1CC1)N1CC2(CCN2C(=O)c2cc(Cc3n[nH]c(=O)c4ccccc34)ccc2F)C1` [Compound 11d, 4-(3-(6-(Cyclopropanecarbonyl)-1,6-diazaspiro[3.3]heptane-1-carbonyl)-4-fluorobenzyl)phthalazin-1(2H)-one], the EC50 in the series with MEF PARP-1 KO−/− cells is > 100 µM.

As for `O=C(c1cc(Cc2n[nH]c(=O)c3ccccc23)ccc1F)N1CCC12CNC2` [Compound 11c, 4-(4-Fluoro-3-(1,6-diazaspiro[3.3]heptane-1-carbonyl)benzyl)phthalazin-1(2H)-one], the EC50 in the series on MEF WT cells, with MEF PARP-1 KO−/− cells and in the series on MEF PARP-2 KO−/− cells was > 100 µM each time.

For the compound `CC(C)(C)OC(=O)N1CC2(C1)CN(C(=O)c1cc(Cc3n[nH]c(=O)c4ccccc34)ccc1F)C2` [Compound 10c, Tert-butyl 6-(2-fluoro-5-((4-oxo-3,4-dihydrophthalazin-1-yl)methyl)benzoyl)-2,6-diazaspiro[3.3]heptane-2-carboxylate], in the series with MEF PARP-1 KO−/− cells, the EC50 was > 100 µM. Moreover, on PARP-1, the “fold lower PARP-1 affinity compared to methylene congener” value is on record as ~ 16 fold.

As to `O=C(c1cc(Cc2n[nH]c(=O)c3ccccc23)ccc1F)N1CC2(COC2)C1` [Compound 10b, 4-(4-Fluoro-3-(2-oxa-6-azaspiro[3.3]heptane-6-carbonyl)benzyl)phthalazin-1(2H)-one], the EC50 with MEF PARP-1 KO−/− cells was > 100 µM.

For `O=C(c1cc(Cc2n[nH]c(=O)c3ccccc23)ccc1F)N1CCC2(CCNCC2)C1` [Compound 16c, 4-(4-Fluoro-3-(2,8-diazaspiro[4.5]decane-2-carbonyl)benzyl)phthalazin-1(2H)-one], the EC50 with MEF WT cells, in the series on MEF PARP-1 KO−/− cells and with MEF PARP-2 KO−/− cells was > 100 µM in each case.
